{"source": "ChEMBL document CHEMBL1201862", "about": "“PubChem BioAssay data set” (2004)", "key": {"[1]": {"target": "Mothers against decapentaplegic homolog 3 (Homo sapiens, UniProt P84022)", "sequence (P84022 whole entry)": "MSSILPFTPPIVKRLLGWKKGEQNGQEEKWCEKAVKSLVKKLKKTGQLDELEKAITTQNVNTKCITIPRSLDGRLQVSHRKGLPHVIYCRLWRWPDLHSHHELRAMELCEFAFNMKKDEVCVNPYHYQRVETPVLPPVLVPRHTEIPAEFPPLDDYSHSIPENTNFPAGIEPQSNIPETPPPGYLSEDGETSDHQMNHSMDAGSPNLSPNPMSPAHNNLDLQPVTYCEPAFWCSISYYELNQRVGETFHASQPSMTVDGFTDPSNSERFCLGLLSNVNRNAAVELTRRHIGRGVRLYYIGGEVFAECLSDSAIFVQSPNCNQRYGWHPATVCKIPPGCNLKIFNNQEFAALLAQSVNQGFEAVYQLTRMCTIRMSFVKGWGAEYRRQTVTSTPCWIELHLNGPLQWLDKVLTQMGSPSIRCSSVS", "experiment": "SMAD3 transcription factor inhibitors, dose response (AID 715)", "format": "functional"}, "[2]": {"target": "Intestinal-type alkaline phosphatase (Homo sapiens, UniProt P09923)", "sequence (P09923 whole entry)": "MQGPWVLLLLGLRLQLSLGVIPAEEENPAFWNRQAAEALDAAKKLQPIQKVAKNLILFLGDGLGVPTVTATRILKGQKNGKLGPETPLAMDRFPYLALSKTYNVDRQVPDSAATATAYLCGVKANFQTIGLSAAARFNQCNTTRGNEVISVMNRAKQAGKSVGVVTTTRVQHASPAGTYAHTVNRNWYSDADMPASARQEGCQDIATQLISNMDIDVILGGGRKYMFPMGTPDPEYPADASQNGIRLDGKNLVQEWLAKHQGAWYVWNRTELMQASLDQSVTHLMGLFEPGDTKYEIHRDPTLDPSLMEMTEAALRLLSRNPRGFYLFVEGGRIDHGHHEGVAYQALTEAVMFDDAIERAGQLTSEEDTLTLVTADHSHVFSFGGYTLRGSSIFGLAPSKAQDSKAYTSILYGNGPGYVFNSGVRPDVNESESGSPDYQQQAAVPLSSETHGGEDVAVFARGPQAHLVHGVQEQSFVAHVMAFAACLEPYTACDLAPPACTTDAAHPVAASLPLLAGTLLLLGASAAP", "experiment": "Dose Response confirmation of uHTS hits from a small molecule inhibitors of human intestinal alkaline phosphatase via a luminescent assay. [Related pubchem assays (depositor defined):AID2544, AID2574]", "format": "functional"}, "[3]": {"target": "T1, Sentrin-specific protease 8 (Homo sapiens, UniProt Q96LD8)", "T1 sequence (Q96LD8 whole entry)": "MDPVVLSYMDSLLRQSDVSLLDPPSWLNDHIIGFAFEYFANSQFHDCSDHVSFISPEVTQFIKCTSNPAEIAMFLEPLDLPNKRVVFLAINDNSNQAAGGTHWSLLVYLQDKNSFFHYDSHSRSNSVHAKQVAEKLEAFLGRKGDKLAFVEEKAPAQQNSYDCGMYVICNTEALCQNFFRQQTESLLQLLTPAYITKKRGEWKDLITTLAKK", "format": "functional"}, "[4]": {"target": "T2, Histone-lysine N-methyltransferase NSD2 (Homo sapiens, UniProt O96028)", "T2 sequence (O96028 whole entry)": "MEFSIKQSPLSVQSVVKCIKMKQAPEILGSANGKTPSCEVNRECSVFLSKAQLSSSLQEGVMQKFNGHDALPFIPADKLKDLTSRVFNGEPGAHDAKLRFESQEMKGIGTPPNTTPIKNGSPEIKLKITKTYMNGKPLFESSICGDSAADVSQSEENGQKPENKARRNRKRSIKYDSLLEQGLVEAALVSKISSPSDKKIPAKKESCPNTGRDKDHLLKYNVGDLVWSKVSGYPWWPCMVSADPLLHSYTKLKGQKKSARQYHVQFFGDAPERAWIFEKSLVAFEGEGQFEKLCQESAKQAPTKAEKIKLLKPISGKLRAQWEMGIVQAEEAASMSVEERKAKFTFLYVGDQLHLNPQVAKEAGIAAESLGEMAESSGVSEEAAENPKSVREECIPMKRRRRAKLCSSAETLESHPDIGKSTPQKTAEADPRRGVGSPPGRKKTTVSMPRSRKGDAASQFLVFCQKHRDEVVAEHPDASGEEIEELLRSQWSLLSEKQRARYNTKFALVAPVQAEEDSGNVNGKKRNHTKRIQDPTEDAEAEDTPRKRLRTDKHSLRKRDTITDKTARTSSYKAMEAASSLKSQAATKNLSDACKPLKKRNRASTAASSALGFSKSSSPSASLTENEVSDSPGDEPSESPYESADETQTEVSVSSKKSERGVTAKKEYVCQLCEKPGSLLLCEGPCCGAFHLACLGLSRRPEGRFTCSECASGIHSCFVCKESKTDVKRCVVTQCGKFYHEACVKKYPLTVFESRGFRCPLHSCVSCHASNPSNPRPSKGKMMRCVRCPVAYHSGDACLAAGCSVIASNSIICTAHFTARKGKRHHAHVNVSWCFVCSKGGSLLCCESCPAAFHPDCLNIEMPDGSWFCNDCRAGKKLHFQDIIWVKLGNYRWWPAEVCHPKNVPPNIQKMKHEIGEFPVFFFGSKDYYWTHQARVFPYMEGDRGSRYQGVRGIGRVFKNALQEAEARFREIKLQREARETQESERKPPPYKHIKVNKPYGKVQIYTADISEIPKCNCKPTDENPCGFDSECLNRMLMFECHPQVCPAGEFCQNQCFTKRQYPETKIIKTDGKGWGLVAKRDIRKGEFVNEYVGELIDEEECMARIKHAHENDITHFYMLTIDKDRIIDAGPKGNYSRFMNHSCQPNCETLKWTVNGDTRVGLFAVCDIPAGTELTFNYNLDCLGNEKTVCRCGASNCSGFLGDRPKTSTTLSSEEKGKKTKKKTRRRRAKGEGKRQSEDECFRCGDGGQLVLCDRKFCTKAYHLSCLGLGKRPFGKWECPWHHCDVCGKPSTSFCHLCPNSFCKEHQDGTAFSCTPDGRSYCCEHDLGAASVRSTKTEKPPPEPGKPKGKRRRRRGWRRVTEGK", "format": "biochemical"}, "Caspase-3": {"target": "T3, Caspase-3 (Homo sapiens, UniProt P42574)", "T3 sequence (P42574 whole entry)": "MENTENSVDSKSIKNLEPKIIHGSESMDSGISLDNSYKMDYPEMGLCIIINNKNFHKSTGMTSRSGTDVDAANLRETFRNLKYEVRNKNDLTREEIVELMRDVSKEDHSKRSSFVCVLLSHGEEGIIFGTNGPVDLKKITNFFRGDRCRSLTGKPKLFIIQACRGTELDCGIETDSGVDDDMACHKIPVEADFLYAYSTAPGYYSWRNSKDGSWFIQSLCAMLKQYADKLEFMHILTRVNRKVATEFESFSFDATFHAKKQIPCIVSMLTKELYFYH", "experiment": "Dose-response confirmation of uHTS inhibitor hits of Sentrin-Specific Protease 8 in a Caspase-3 Fluorescence assay.", "format": "functional"}, "[5]": {"target": "T1, Sentrin-specific protease 8", "format": "functional", "remark": "listed apart in the source"}, "[6]": {"experiment": "THP-1 cell cytotoxicity, dose response, cytotoxicity control for Vif-APOBEC3G degradation inhibitor project, THP-1 cells (AID 1117359)", "format": "functional", "conditions": "Human immunodeficiency virus 1, THP-1"}}, "note": "Activity calls are given as the source filed them."}
{"smiles": "Nc1c(N2CCCC2)cc(Cl)c2nonc12", "values": [{"measurement": "IC50", "setting": "[1]", "value": "18.3 µM (active)"}, {"measurement": "IC50", "setting": "[2]", "value": "> 100 µM (inactive)"}]}
{"smiles": "O=C(NNc1cc(N2CCOCC2)nc(N2CCOCC2)n1)c1ccc([N+](=O)[O-])cc1", "values": [{"measurement": "IC50", "setting": "[3]", "value": "3.2 µM (active)"}, {"measurement": "AC50", "setting": "[4]", "value": "2.56 µM (active)"}, {"measurement": "IC50", "setting": "Caspase-3", "value": "20.9 µM (active)"}, {"measurement": "IC50", "setting": "[5]", "value": "2.86 µM (active)"}]}
{"smiles": "Oc1ccc(/N=C/c2ccc(OCc3ccccc3)cc2)cc1", "values": [{"measurement": "CC50", "setting": "[6]", "value": "> 40 µM (active)"}]}
